Experimental data taken from the supplement of paper PMC10307832.

Columns and labels:
Assay in all cases: relative viability (nuclei count vs DMSO), 5 days (fraction); higher = more cells survive
[1] = compound: O=C1NC(=O)[C@@H](c2cn3c4c(cccc24)CCC3)[C@@H]1c1c[nH]c2ccccc12 [Tivantinib] + O=C(c1cc(Cc2n[nH]c(=O)c3ccccc23)ccc1F)N1CCN(C(=O)C2CC2)CC1 [Olaparib] (partner 8 µM)
Method in brief: (§1)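 After 5 days of treatment, lung cancer cells in 1536-well plates were fixed and stained in a single step (final 0.05% Triton X-100, 1% formaldehyde, 1 ug/ml Hoechst) and their nuclei counted on 4× images. Treatment had been applied by pin tool the day after seeding as one drug alone or as a fixed anchor-drug dose with five library-drug doses (not always all listed) in √10 steps. Relative viability is the nuclei count of treated wells divided by that of vehicle wells, and values are medians of duplicate plates.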

[2] = compound: CC1(COc2ccc3c(c2)ncn3-c2ccc3cccc(N4CCC(N)CC4)c3n2)COC1 [Crenolanib] + CS(=O)(=O)CCNCc1ccc(-c2ccc3ncnc(Nc4ccc(OCc5cccc(F)c5)c(Cl)c4)c3c2)o1 [Lapatinib] (partner 2 µM)
Method in brief: as §1

[3] = compound: O=C1NC(=O)[C@@H](c2cn3c4c(cccc24)CCC3)[C@@H]1c1c[nH]c2ccccc12 [Tivantinib] + C[C@@H](Oc1cc(-c2cnn(C3CCNCC3)c2)cnc1N)c1c(Cl)ccc(F)c1Cl [Crizotinib] (partner 1 µM)
Method in brief: as §1

[4] = compound: CC1(COc2ccc3c(c2)ncn3-c2ccc3cccc(N4CCC(N)CC4)c3n2)COC1 [Crenolanib] + Cc1nc(Nc2ncc(C(=O)Nc3c(C)cccc3Cl)s2)cc(N2CCN(CCO)CC2)n1 [Dasatinib] (partner 0.075 µM)
Method in brief: as §1

| Cell Line | relative viability ([1]; first compound 0.01 µM) | relative viability ([1]; first compound 0.03162 µM) | relative viability ([1]; first compound 0.1 µM) | relative viability ([2]; first compound 0.01 µM) | relative viability ([2]; first compound 0.03162 µM) | relative viability ([2]; first compound 0.1 µM) | relative viability ([2]; first compound 0.3162 µM) | relative viability ([2]; first compound 1 µM) | relative viability ([3]; first compound 0.01 µM) | relative viability ([3]; first compound 0.03162 µM) | relative viability ([3]; first compound 0.1 µM) | relative viability ([3]; first compound 0.3162 µM) | relative viability ([4]; first compound 0.01 µM) | relative viability ([4]; first compound 0.03162 µM) | relative viability ([4]; first compound 0.1 µM) | relative viability ([4]; first compound 0.3162 µM) | relative viability ([4]; first compound 1 µM) | relative viability ([1]; first compound 0.3162 µM) |
| --- | --- | --- | --- | --- | --- | --- | --- | --- | --- | --- | --- | --- | --- | --- | --- | --- | --- | --- |
| NCI-H322M | 0.718 | 0.754 | 0.777 | 0.613 | 0.64 | 0.543 | 0.567 | 0.587 | 0.823 | 0.94 | 0.901 | 1.02 | 0.241 | 0.258 | 0.255 | 0.251 | 0.303 |  |
| NCI-H358 | 0.633 | 0.63 | 0.505 | 0.468 | 0.461 | 0.44 | 0.45 | 0.312 | 0.651 | 0.574 | 0.709 | 0.301 | 0.146 | 0.187 | 0.188 | 0.162 | 0.168 | 0.379 |
| NCI-H460 | 0.412 | 0.429 | 0.399 | 0.997 | 1 | 1.04 | 1.46 | 1.01 | 0.878 | 0.884 | 0.848 | 0.217 | 0.506 | 0.461 | 0.531 | 0.565 | 0.522 | 0.39 |
| NCI-H520 | 0.347 | 0.339 | 0.291 | 0.664 | 0.848 | 0.88 | 0.85 | 0.778 | 0.797 | 0.764 | 0.758 | 1.05 | 0.244 | 0.194 | 0.197 | 0.244 | 0.309 | 0.37 |
| NCI-H596 | 0.734 | 0.661 | 0.655 | 0.947 | 1.09 | 0.89 | 1.14 | 1.18 | 1.08 | 0.92 | 0.987 | 0.905 | 0.716 | 0.655 | 0.627 | 0.675 | 0.538 | 0.6 |
| NCI-H647 | 0.425 | 0.638 | 0.401 | 1.04 | 0.996 | 1.05 | 1.16 | 1.08 | 1.18 | 1.07 | 1.03 | 0.995 | 0.175 | 0.209 | 0.196 | 0.189 | 0.201 | 0.638 |
| NCI-H650 | 0.41 | 0.432 | 0.356 | 0.83 | 1.15 | 0.884 | 0.841 | 0.655 | 0.728 |  | 0.629 | 0.557 | 0.493 | 0.472 | 0.425 | 0.404 | 0.356 | 0.34 |
| NCI-H661 | 0.742 | 0.744 | 0.706 | 0.493 | 0.547 | 0.47 | 0.451 | 0.468 | 0.914 | 1 | 0.962 | 0.736 | 0.958 | 0.845 | 0.864 | 0.992 | 1.09 | 0.699 |
| NCI-H727 | 0.746 | 0.785 | 0.593 | 0.936 | 0.662 | 0.752 | 0.856 | 0.686 | 0.764 | 0.96 | 0.88 |  | 0.348 | 0.364 | 0.338 | 0.347 | 0.49 |  |
| NCI-H838 | 0.775 | 0.77 | 0.71 | 1.07 | 0.966 | 0.993 | 1.02 | 0.805 | 0.831 | 0.924 | 0.886 | 0.963 | 0.262 | 0.294 | 0.273 | 0.28 | 0.219 | 0.816 |
| NCI-H1355 | 0.807 | 0.742 | 0.726 | 1.02 | 1.04 | 0.999 | 1.15 | 0.78 | 1.15 | 1.1 | 1.01 | 0.806 | 0.733 | 0.704 | 0.681 | 0.718 | 0.488 | 0.64 |
| NCI-H1437 | 0.605 | 0.629 | 0.607 | 0.751 | 0.762 | 0.808 | 0.873 | 0.688 | 0.875 | 1.07 | 0.977 | 0.91 | 0.403 | 0.369 | 0.361 | 0.377 | 0.42 | 0.588 |
| NCI-H1650 | 0.832 | 0.817 | 0.678 | 0.799 | 0.918 | 0.783 | 0.719 | 0.512 | 1.07 | 0.903 | 1.04 | 0.984 | 0.301 | 0.338 | 0.29 | 0.285 | 0.32 | 0.624 |
| NCI-H1651 | 0.207 | 0.187 | 0.194 | 0.83 | 0.979 | 0.9 | 0.945 | 0.767 | 0.893 | 0.828 | 0.867 | 0.762 | 0.504 | 0.377 | 0.373 | 0.531 | 0.336 | 0.195 |
| NCI-H1666 | 0.734 | 0.736 | 0.696 | 0.772 | 0.579 | 0.799 | 0.872 | 0.509 | 0.955 | 1.03 | 0.993 | 0.992 | 0.791 | 0.854 | 0.745 | 0.819 | 0.745 | 0.731 |
| NCI-H1734 | 0.61 | 0.615 | 0.577 | 1 | 1.08 | 0.995 | 1.27 | 0.937 | 0.685 | 0.73 | 0.586 | 0.569 | 0.502 | 0.427 | 0.468 | 0.465 | 0.453 | 0.495 |
| NCI-H1755 | 0.9 | 0.85 | 0.848 | 1.02 | 1.08 | 0.987 | 1.12 | 0.967 | 0.892 | 0.878 | 0.793 | 0.92 | 0.465 | 0.472 | 0.395 | 0.437 | 0.384 | 0.898 |
| NCI-H1792 | 0.406 |  | 0.406 | 0.977 | 0.851 | 0.835 | 1.09 | 0.874 | 1.02 | 0.948 | 0.828 | 0.932 | 0.779 | 0.777 | 0.751 | 0.866 | 0.747 | 0.3 |
